Measurements: patent US20260248789A1, “CONTROLLED RELEASE PDE10A FORMULATIONS” (Merck Sharp & Dohme LLC, priority 2023, published 2026)

How the values were obtained:
[1] = Study 2: multiple-dose titration study, PK of CR formulation; format: in vivo; conditions: human, plasma, oral, highest dose level in Study 2 (48 mg, CR formulation, schizophrenia)
Method: (§1) Study 2 was designed similarly to Study 1; participants were administered CR Release formulations of Compound A/placebo as monotherapy in participants with schizophrenia (n=16) and healthy participants (n=16), or as adjunctive therapy (n=17) (schizophrenia participants only) and titrated from 4 mg to 24 mg (see Table 3 for illustration of PK at the 24 mg dose level as monotherapy in healthy adults). In Study 2 an additional panel of participants with schizophrenia was administered CR formulations of Compound A/placebo as monotherapy and titrated from 8 mg to 48 mg (n=26)(see Table 4 for illustration of PK at the 48 mg dose level).

[2] = Study 2: tolerability of CR formulation; format: in vivo, human; conditions: Study 2, CR formulation titrated from 4 mg to 24 mg and from 8 mg to 48 mg
Method: as §1

[3] = Study 3: tolerability / adverse events of CR formulation; format: in vivo, human
Method: In Study 3, one panel of participants [(n=8)—monotherapy in adult participants with schizophrenia] were titrated from 16 mg to 24 mg or placebo, while in another panel participants (n=18) received 24 mg/placebo without titration (Table 5) to determine if titration was required for tolerability.
There were 2 events of transient dystonia following the first dose of 16 mg, but both events responded to treatment and participants continued dosing without recurrence. […] Other adverse events (i.e., depression, anxiety and stress) across all three studies were mostly mild or moderate in intensity and there was no clear dose-related increase in specific events (Table 6).

[4] = Study 7: tolerability in healthy subjects 8-72 mg; format: in vivo, human; conditions: Study 7, healthy subjects (n=12) dosed 8 mg to 72 mg; up to and including doses of 48 mg
Source text: Plasma exposures in this study were generally similar those observed in the other multiple dose studies reported here (data not shown).

[5] = 24 mg (Day 1-7), Panel B, participants with schizophrenia, 14 in population

## Cc1ccc([C@H]2C[C@@H]2COc2cc(NCc3nnc(C)s3)nc(C)n2)nc1 [Compound A, 2-methyl-N-((5-methyl-1,3,4-thiadiazol-2-yl)methyl)-6-(((1S,2S)-2-(5-methylpyridin-2-yl)cyclopropyl)methoxy)pyrimidin-4-amine]
[1]
  Cmax: ~1800 nM
[1]; read-out: C24
  concentration at 24 h: ~1200 nM
[2]
  dystonia: no Compound A-related dystonia was observed
[3]; [5]
  Alanine aminotransferase increased, (%): (7.1) %
  Decreased appetite, (%): (7.1) %
  Hypertonia, (%): (7.1) %
  Investigations (non-serious related AE), (%): (7.1) %
  Metabolism and nutrition disorders, (%): (7.1) %
  Musculoskeletal and connective tissue disorders, (%): (7.1) %
  Musculoskeletal stiffness, (%): (7.1) %
  Nervous system disorders, (%): (21.4) %
  Participants with no Non-Serious Related Adverse Event, (%): (64.3) %
  Participants with one or more Non-Serious Related Adverse Event, (%): (35.7) %
  Somnolence, (%): (14.3) %
[3]; Study 3, dosing initiated at 16 mg or 24 mg with no titration
  tolerability: generally well tolerated
[3]; Study 3, dosing initiated at 24 mg without titration
  dystonia: No events of dystonia were reported
[3]; Study 3, following the first dose of 16 mg
  events of transient dystonia: 2
[4]
  dystonia: no dystonia was reported
